Series [1] deals with T1, TAP (Bacillus subtilis, UniProt P13485).
T1 construct: corresponds to a 2163 bp open reading frame beginning with ATG at bp 100 and ending with TAA at bp 2263; made in house; host or cells: E. coli DH10B / pBSRODC1 (pTrc99A vector); membrane preparation, 2M NaCl extract, High Q fraction
As to the kind of experiment: TAP enzyme assay (acid precipitation of radioactive lipoteichoic acid). The class given is biochemical, B. subtilis. The settings on record: lipoteichoic acid from either B. subtilis, S. aureus, or E. faecalis. Here is the method: (§1) The enzymatic activity of TAP was assayed using CDP[^3H]glycerol as the glycerolphosphate donor and B. subtilis lipoteichoic acid as the acceptor. If active, the recombinant TAP enzyme should lengthen lipoteichoic acid with radioactive glycerolphosphate monomers, producing acid precipitable radioactivity. […] Extraction of TAP from the E. coli membrane with 2 M NaCl produced an active TAP preparation that could be separated from the cell membrane by ultracentrifugation.
(§2) The method of Burger and Glaser was generally followed. Burger M M, Glaser L. “The synthesis of teichoic acids” J. Biol. Chem. (1964) vol. 239, pp. 3168-3177, incorporated by reference. A typical assay contained 1-100 μl of enzyme, 10 μl of lipoteichoic acid (1 mg/ml B. subtilis lipoteichoic acid [Sigma] in water), 25 μl of CDP[^3H]glycerol (10 mM CDPglycerol Specific Activity 8.8 μCi/μMole), and enough Buffer A to bring the total volume to 250 μl. The reaction was incubated at 37° C. for one hour, mixed with 80 μl of 3N perchloric acid, and placed on ice for 5 min. The acid treated sample was spotted on a GF/C filter and washed with 4×5 ml of 0.15 N perchloric acid before liquid scintillation counting. Control reactions lacking either lipoteichoic acid or CDP[^3H]glycerol were included as negative controls.
(§3) The method of Burger and Glaser was generally followed. […]

The target of series [2] is T2, TAP (Bacillus subtilis, UniProt P13485, A616V).
T2 construct: corresponds to a 2163 bp open reading frame beginning with ATG at bp 100 and ending with TAA at bp 2263; made in house; host or cells: E. coli DH10B / pBSRODC1 (pTrc99A vector); membrane preparation, 2M NaCl extract, High Q fraction
T2 sequence (P13485 26-746 A616V): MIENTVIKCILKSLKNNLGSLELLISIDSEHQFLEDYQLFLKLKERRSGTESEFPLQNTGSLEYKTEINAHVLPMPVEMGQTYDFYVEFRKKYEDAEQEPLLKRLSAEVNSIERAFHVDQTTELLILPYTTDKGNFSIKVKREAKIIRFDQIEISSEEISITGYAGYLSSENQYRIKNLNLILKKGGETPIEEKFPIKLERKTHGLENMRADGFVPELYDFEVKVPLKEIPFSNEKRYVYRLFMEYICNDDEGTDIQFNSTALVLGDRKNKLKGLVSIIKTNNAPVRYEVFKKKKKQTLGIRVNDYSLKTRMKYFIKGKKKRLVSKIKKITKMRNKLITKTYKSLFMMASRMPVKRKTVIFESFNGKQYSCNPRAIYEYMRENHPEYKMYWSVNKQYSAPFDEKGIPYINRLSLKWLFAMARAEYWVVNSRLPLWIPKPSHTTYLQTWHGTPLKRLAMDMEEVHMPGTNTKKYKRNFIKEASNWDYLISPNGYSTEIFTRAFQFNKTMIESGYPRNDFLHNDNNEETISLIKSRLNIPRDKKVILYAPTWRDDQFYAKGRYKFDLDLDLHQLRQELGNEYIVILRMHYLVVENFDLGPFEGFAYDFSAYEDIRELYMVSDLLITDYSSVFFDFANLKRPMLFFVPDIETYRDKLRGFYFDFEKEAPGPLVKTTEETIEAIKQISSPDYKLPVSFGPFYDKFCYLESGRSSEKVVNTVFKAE
The series is described as above. It is filed as biochemical, B. subtilis. The settings on record: alanine ester removed in 0.1M Tris-HCl pH 8.0, 24 hr, 37° C. Here is the method: as §1, §2, §3

The nature of series [3]: Storage stability of the TAP enzyme. The class given is physicochemical. As to conditions: stored in ice.

T1 sequence (P13485 26-746 A616V): as above

For lipoteichoic acid, the “acceptor of CDP[3H]glycerol (substrate for TAP)” value in series [1] was “could serve as an acceptor”. In addition, the “effect of alanine removal from lipoteichoic acid on activity of the recombinant TAP enzyme” value in series [2] is given as “improved activity”.

B1: TAP: recombinant B. subtilis rodC (tagF) gene product overexpressed in E. coli DH10B/pBSRODC1, SEQ ID NO 2 with alanine to valine change (protein)
chain: MSLVVDTNKRKQKGKSFYTEEQKKVMIENTVIKCILKSLKNNLGSLELLISIDSEHQFLEDYQLFLKLKERRSGTESEFPLQNTGSLEYKTEINAHVLPMPVEMGQTYDFYVEFRKKYEDAEQEPLLKRLSAEVNSIERAFHVDQTTELLILPYTTDKGNFSIKVKREAKIIRFDQIEISSEEISITGYAGYLSSENQYRIKNLNLILKKGGETPIEEKFPIKLERKTHGLENMRADGFVPELYDFEVKVPLKEIPFSNEKRYVYRLFMEYICNDDEGTDIQFNSTALVLGDRKNKLKGLVSIIKTNNAPVRYEVFKKKKKQTLGIRVNDYSLKTRMKYFIKGKKKRLVSKIKKITKMRNKLITKTYKSLFMMASRMPVKRKTVIFESFNGKQYSCNPRAIYEYMRENHPEYKMYWSVNKQYSAPFDEKGIPYINRLSLKWLFAMARAEYWVVNSRLPLWIPKPSHTTYLQTWHGTPLKRLAMDMEEVHMPGTNTKKYKRNFIKEASNWDYLISPNGYSTEIFTRAFQFNKTMIESGYPRNDFLHNDNNEETISLIKSRLNIPRDKKVILYAPTWRDDQFYAKGRYKFDLDLDLHQLRQELGNEYIVILRMHYLVAENFDLGPFEGFAYDFSAYEDIRELYMVSDLLITDYSSVFFDFANLKRPMLFFVPDIETYRDKLRGFYFDFEKEAPGPLVKTTEETIEAIKQISSPDYKLPVSFGPFYDKFCYLESGRSSEKVVNTVFKAE
On to B1, for which, in series [3], the “stability of the enzyme on storage” value is “stable for two weeks”.

For the origin of these results see patent publication US6428971B1, “Teichoic acid enzymes and assays” (priority 1996, dated 2002).
